Reference: patent publication US20250092001A1, “NOVEL EXCITATORY AMINO ACID GLUTAMATE TRANSPORT MODULATORS AND METHODS USING THE SAME” (Drexel University, priority 2022, published 2025)
Read-outs that look alike come from different tables or passages of the source.

Key:
[1] = Pharmacokinetics of GT467 and GT511 in rats, plasma and brain (IV, IP, PO); type: in vivo, rat; conditions: for AUC0-t: 0 to 24 hrs
Procedure: Pharmacokinetics (PK) study for GT951 was conducted at Melior Discovery Services (Exton, PA). Fifteen male CD-1 mice 23-50 g was used for the study and the mice were housed 3 per cage. PK studies for GT467 and GT511 were conducted at Piramal Pharma solutions under approved protocols (Pune, India). One hundred and sixty-eight male Wistar rats were used for the study and housed 4 per cage. All animals were maintained on a standard 12 h light cycle and given free access to water and standard rodent chow. Food and water were available ad libitum. Animals were not fasted for any portion of the study and animals were acclimated to the animal care facility for seven days prior to the start of the experiment. The holding room and procedure room temperature was 21-23° C. and humidity was at 40-45% during the experiment (within the normal range of the care facility). All procedures were completed according to Institutional Animal Care and Use Committee (IACUC) approved protocols for housing and for PK studies.
Rats were dosed with the drug and blood and brain samples were collected at 0.5, 1, 2, 4, 8 and 24 h time points. Blood was collected via the sub-lingual vein under anesthesia into tubes containing Na2EDTA as an anticoagulant. Plasma fraction was separated by centrifuging the samples at 10,000 rpm for 5 min and the plasma was transferred to a cryo tube and stored at −80 C. Animals were euthanized and the brain was rapidly removed on ice and weighed. Brain was homogenized in Milli Q water and the homogenate was stored at −80 C until further use. Bioanalysis of the samples was performed using the SCIEX QTRAP 5500 LCMS/MS system with Phenomenex synergy C18 column and carbamazepine as internal standard. A methanol extraction procedure was used to precipitate the proteins in the sample. In addition to the internal standards, drug free plasma and brain samples were prepared for calibration and quantification standards. All samples were within the detectable range of the standard curves. 50 μl of the sample was added to 200 μl of the working solution of the internal standard and centrifuged for 5 min at 10,000 rpm. 60 μl of the supernatant was added to 140 μl of water and mixed well prior to transferring them for quantitative analysis on LCMS.
Specifically, rats were administered with GT467 or GT511 intraperitoneally (IP), intravenously (IV) or orally (PO). The concentration of the administered compounds measured at various timepoints in the plasma are depicted in FIGS. 4A and 4B, the concentrations of the administered compounds measured at various timepoints in the brain are depicted in FIGS. 5A and 5B.
Furthermore, pharmacokinetic parameters such as the peak concentration (Cmax), the time to reach the peak concentration (Tmax), the area under curve from time 0 to T (i.e., 24 hrs) (AUC0-t), the area under curve from time 0 to infinite (AUC0-∞), the half-life (t1/2), the oral clearance (CL/F), the volume of distribution of drug observed (Vz_F_obs), and the percentage of bioavailability (% Bioavailability) were also measured or calculated.

[2] = test system: Drosophila model of Huntington's Disease (Htt model); assay: Larval locomotion assay in Drosophila Huntington's disease model; type: in vivo; conditions: third instar larvae; concentrations as low as two-fold below EC50 and one-fold below EC50
Excerpt: FIG. 6A illustrate certain aspects of a locomotion assay used to assay the locomotive activities. […] FIGS. 6B and 6C depict the results of the locomotion assay results of wild-type Drosophila (“WT”), as well as Drosophila of a Huntington's disease model treated with vehicle (“Veh”) or with various concentrations of two exemplary GLT-1 modulators. […] The Drosophila Htt model is produced by crossing UAS-Htt([…]) male flies with elav-Gal4 virgin female flies. Both fly strains were purchased from Bloomington Drosophila Stock Center (BDSC, Indiana, USA). […] Locomotion assays were conducted by transferring the third instar larvae of flies to agar plates (FIG. 6A) and counting the number of grid lines crossed in 30 seconds.

[3] = test system: PD rats (unilaterally lesioned rodent model of PD); assay: 5-Choice Serial Reaction Time Task (5CSRTT); type: in vivo, rat; conditions: compared to saline
Excerpt: FIG. 12 lists the training schedule for 5CSRTT (5-Choice Serial Reaction Time Task) assay with criteria for success, in accordance with some embodiments.
FIG. 13: Schematic representation of the 5CSRTT assay, in accordance with some embodiments. Rats were trained to receive food reward for a correct nose poke response to a signal light (correct trial shown in arrow connecting 1 and 3). Incorrect trials (the arrows connecting 2/3 to 1) or omissions (the arrow connecting 4 to other boxes) results in time out indicated by darkness with no Cue lights. Trial resets with variable intertrial intervals. Nose pokes made during inter trial interval (ITI) are recorded as premature responses (PMR) that codes for impulsive behavior

[4] = test system: PD rats; assay: Elevated plus maze (EPM); type: in vivo, rat; conditions: male PD rats; 4 mg/kg; 10 min post treatment
Procedure: Referring to FIGS. 11-13, in the elevated plus maze test, male PD rats were treated with either saline or GTS467 (4 mg/kg). 10 min post treatment, the rats were placed in the middle of the elevated plus maze (EPM). Time spent in closed and open arms were recorded for 5 min. Frequency of entries in open and close arms was recorded.

[5] = male, Wistar, rat plasma, IP 10 mg/kg
[6] = male, Wistar, rat plasma, IV 5 mg/kg
[7] = male, Wistar, rat plasma, PO 10 mg/kg

AUC(0-inf) [1, 5]: 556 ng·h/mL
Cmax [1, 5]: 262 ng/mL
AUC0-t ([1]; male, Wistar, rat plasma, IP 10 mg/kg, read-out: AUC0-t): 537 ng·h/mL
CL/F ([1]; male, Wistar, rat plasma, IP 10 mg/kg, read-out: CL/F (converted)): 302 mL/min/kg
AUC(0-inf) [1, 6]: 321 ng·h/mL
Cmax [1, 6]: 307 ng/mL
AUC0-t ([1]; male, Wistar, rat plasma, IV 5 mg/kg, read-out: AUC0-t): 316 ng·h/mL
AUC(0-inf) [1, 7]: 798 ng·h/mL
Cmax [1, 7]: 204 ng/mL
AUC0-t ([1]; male, Wistar, rat plasma, PO 10 mg/kg, read-out: AUC0-t): 507 ng·h/mL
CL/F ([1]; male, Wistar, rat plasma, PO 10 mg/kg, read-out: CL/F (converted)): 299 mL/min/kg
AUC0-∞ ([1]; rat brain, IP 10 mg/kg): 4442.19 ng·h/g
Tmax ([1]; rat brain, IP 10 mg/kg): 30 min
t1/2 ([1]; rat brain, IP 10 mg/kg): 97.2 min
AUC0-t ([1]; rat brain, IP 10 mg/kg): 4414.35 ng·h/g
AUC0-∞ ([1]; rat brain, IV 5 mg/kg): 2015.59 ng·h/g
Tmax ([1]; rat brain, IV 5 mg/kg): 30 min
t1/2 ([1]; rat brain, IV 5 mg/kg): 61.8 min
AUC0-t ([1]; rat brain, IV 5 mg/kg): 1959.70 ng·h/g
AUC0-∞ ([1]; rat brain, PO 10 mg/kg): 3080.18 ng·h/g
Tmax ([1]; rat brain, PO 10 mg/kg): 52.8 min
t1/2 ([1]; rat brain, PO 10 mg/kg): 109 min
AUC0-t ([1]; rat brain, PO 10 mg/kg): 2816.80 ng·h/g
% Bioavailability ([1]; rat plasma, IP 10 mg/kg): 85.03%
Tmax ([1]; rat plasma, IP 10 mg/kg): 30 min
Vz_F_obs ([1]; rat plasma, IP 10 mg/kg): 26.470969 L/kg
t1/2 ([1]; rat plasma, IP 10 mg/kg): 60.96 min
CL/F ([1]; rat plasma, IV 5 mg/kg): 273.17875 mL/min/kg
Tmax ([1]; rat plasma, IV 5 mg/kg): 30 min
Vz_F_obs ([1]; rat plasma, IV 5 mg/kg): 16.170403 L/kg
t1/2 ([1]; rat plasma, IV 5 mg/kg): 39.1 min
% Bioavailability ([1]; rat plasma, PO 10 mg/kg): 80.34%
Tmax ([1]; rat plasma, PO 10 mg/kg): 52.5 min
Vz_F_obs ([1]; rat plasma, PO 10 mg/kg): 95.358274 L/kg
t1/2 ([1]; rat plasma, PO 10 mg/kg): 285.8 min
Anxiety (time spent in open vs. closed arm of EPM) [4]: did not induce anxiety
Structure (SMILES): COc1ccc(NC(=O)C(=O)NCC(c2ccccc2)N2CCN(C)CC2)cc1 (centres unmarked) [GT467, N1-(4-methoxyphenyl)-N2-(2-(4-methylpiperazin-1-yl)-2-phenylethyl)oxalamide]
Plasma concentration and brain concentration by route of administration ([1]; rats, IP, IV, PO): high plasma concentration and brain concentration
Locomotor ability (grid lines crossed in 30 seconds) [2]: restores the Huntington's disease model flies' locomotor ability
Omissions (OM) [3]: trend towards reducing omissions
Percentage of correct choices (CR), cognitive performance [3]: improves cognitive performance
Premature responses (PMR), impulsivity [3]: reduces impulsivity
